Experiment [1] has as its target T1, Casein Kinase II (CK2 holoenzyme) (Homo sapiens, UniProt P68400).
T1 construct: gene CSNK2A1; commercial recombinant holoenzyme, heterotetramer; with Casein kinase II subunit beta
Put plainly: [γ-32P]ATP phosphorylation of immunoprecipitated myc-AP3B1, autoradiography. The format is biochemical. The conditions noted are these: 15 µM TBCA preincubated 30 min on ice; 500 µM Mg-ATP; enzyme form (holoenzyme or GST-CK2α) not told for the TBCA lanes.

The next experiment deals with T2, AP3B1 (myc-tagged) (Homo sapiens, UniProt O00203).
T2 construct: full-length, N-terminal myc tag, expressed in HEK293T cells, immunoprecipitated on protein G-sepharose beads
T2 sequence (O00203 1-1094): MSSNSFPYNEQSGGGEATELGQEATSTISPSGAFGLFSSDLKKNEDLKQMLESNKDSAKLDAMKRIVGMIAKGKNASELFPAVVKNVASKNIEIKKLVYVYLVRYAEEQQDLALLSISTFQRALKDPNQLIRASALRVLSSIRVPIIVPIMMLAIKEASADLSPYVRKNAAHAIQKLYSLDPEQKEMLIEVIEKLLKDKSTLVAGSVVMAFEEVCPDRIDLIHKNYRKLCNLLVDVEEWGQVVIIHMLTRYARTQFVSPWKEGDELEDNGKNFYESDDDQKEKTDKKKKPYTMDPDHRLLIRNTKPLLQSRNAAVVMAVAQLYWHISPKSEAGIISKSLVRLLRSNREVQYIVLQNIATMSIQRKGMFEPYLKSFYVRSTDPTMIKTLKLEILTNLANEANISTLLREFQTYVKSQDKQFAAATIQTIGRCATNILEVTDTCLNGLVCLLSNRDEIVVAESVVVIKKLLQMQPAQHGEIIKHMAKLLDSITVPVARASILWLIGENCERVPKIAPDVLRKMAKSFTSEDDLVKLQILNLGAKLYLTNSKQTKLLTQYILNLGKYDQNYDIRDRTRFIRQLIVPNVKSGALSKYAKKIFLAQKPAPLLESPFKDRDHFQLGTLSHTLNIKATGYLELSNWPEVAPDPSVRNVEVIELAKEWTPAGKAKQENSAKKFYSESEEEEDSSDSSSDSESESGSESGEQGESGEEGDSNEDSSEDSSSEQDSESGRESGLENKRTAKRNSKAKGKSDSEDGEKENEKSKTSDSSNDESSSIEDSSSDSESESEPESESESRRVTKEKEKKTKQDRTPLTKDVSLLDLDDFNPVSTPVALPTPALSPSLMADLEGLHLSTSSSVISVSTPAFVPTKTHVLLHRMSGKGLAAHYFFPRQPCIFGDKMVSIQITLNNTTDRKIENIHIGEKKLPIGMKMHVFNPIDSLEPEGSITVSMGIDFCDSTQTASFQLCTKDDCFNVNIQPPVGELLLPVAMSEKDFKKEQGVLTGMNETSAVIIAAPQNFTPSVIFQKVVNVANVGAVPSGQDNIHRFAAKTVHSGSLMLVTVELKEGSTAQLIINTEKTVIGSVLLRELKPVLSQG
Nature of the experiment: pyrophosphorylation of immunoprecipitated protein, phosphorimager. The format is biochemical. The conditions noted are these: labelled compound; β-phosphate donor, covalent transfer to pSer of the protein, enzyme-independent; 6 mM MgCl2, pH 7.4, 37 °C, 15 min.

T1 sequence (P68400 whole entry): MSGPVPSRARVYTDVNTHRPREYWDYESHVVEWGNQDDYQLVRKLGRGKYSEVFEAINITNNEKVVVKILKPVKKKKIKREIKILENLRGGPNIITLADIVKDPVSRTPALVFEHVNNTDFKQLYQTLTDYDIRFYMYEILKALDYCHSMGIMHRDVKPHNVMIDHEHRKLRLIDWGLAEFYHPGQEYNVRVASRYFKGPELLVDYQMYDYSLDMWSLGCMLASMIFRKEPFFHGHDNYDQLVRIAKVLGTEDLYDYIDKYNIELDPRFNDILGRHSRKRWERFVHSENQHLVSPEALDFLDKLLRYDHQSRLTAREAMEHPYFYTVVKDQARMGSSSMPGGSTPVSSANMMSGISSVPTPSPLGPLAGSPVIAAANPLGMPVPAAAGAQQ
T1 sequence (P67870 2-215 partner): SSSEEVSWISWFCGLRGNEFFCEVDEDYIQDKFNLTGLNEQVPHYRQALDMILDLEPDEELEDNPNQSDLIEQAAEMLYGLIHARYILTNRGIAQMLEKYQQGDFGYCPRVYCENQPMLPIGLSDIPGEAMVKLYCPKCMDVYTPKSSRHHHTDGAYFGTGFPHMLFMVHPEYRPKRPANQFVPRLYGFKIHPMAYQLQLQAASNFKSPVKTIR

On to `O=C(O)/C=C/c1cc(Br)c(Br)c(Br)c1Br` [TBCA], for which, in experiment [1], the “phosphorylation lowered at 15 μM” value is given as “which was lowered when the CK2 inhibitor TBCA was added to the reaction”. With `O=P(O)(O)O[C@H]1[C@@H](OP(=O)(O)O)[C@H](OP(=O)(O)O)[C@@H](OP(=O)(O)OP(=O)(O)O)[C@H](OP(=O)(O)O)[C@H]1OP(=O)(O)O` [5-InsP7], on AP3B1 (myc-tagged), the “pyrophosphorylation of immunoprecipitated protein, phosphorimager” value was “AP3B1 over-expressed under these two conditions was immunoprecipitated and incubated with radiolabeled 5-InsP7”.

These data come from article PMC11461180, “Interaction with IP6K1 supports pyrophosphorylation of substrate proteins by the inositol pyrophosphate 5-InsP7” (Bioscience Reports, 2024).
